pIC50: −log10 of the molar value.

One assay deals with T1, Recombinant human cathepsin S (CatS) (Homo sapiens, UniProt P25774).
T1 construct: made in house
T1 sequence (P25774 115-331): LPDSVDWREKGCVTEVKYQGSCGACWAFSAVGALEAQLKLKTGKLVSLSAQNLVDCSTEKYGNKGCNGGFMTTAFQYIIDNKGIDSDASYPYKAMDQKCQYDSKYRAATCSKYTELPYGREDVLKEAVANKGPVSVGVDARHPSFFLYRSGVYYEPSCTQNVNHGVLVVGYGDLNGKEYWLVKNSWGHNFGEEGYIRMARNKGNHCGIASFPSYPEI
Nature of the assay: Recombinant human cathepsin S (CatS) fluorogenic substrate inhibition assay. Type of assay: biochemical.
Conditions: not given
As for the experimental part:
Recombinant human cathepsin S (CatS) was expressed in the baculovirus system and purified in one step with a thiopropyl-sepharose column. […] The assay is run in 150 mM sodium acetate pH 5.0 containing 1.5 mM DTT and 150 mM NaCl. […] Measurements are taken every min for 20 min. The rate is calculated from the slope of the increase in fluorescence and the percent inhibition is calculated from this.
With `CC(=O)NCC1CCN(CC(O)Cn2nc(-c3ccc(C(F)(F)F)c(CNC(=O)C=C(C)C)c3)c3c2CCN(S(C)(=O)=O)C3)CC1` (centres unmarked) [Example 267, 3-Methyl-but-2-enoic acid 5-(1-{3-[4-(acetylamino-methyl)-piperidin-1-yl]-2-hydroxy-propyl}-5-methanesulfonyl-4,5,6,7-tetrahydro-1H-pyrazolo[4,3-c]pyridin-3-yl)-2-trifluoromethyl-benzylamide], the pIC50 (usually −log10 of the IC50, conventionally taken in molar units) was 7.10. Same read-out and setting: next, `CS(=O)(=O)N1CCc2c(c(-c3ccc(C(F)(F)F)c(CNC(=O)Oc4ccccc4)c3)nn2CC(O)CN2CCC3(CCNC3=O)CC2)C1` (centres unmarked) [Example 149, (5-{1-[2-Hydroxy-3-(1-oxo-2,8-diaza-spiro[4.5]dec-8-yl)-propyl]-5-methanesulfonyl-4,5,6,7-tetrahydro-1H-pyrazolo[4,3-c]pyridin-3-yl}-2-trifluoromethyl-benzyl)-carbamic acid phenyl ester]: 6.66.

The assay is the same for the next values; noted with them: average of results obtained; substrate Z-Valine-Valine-Arginine-AMC 10 μM, pH 5.0; read-out: CatS IC50.
As to `CC(C)=CC(=O)NCc1cc(-c2nn(CC(O)CN3CCC(C(C)(C)C)CC3)c3c2CN(S(C)(=O)=O)CC3)ccc1C(F)(F)F` (centres unmarked) [Example 273, 3-Methyl-but-2-enoic acid 5-{1-[3-(4-tert-butyl-piperidin-1-yl)-2-hydroxy-propyl]-5-methanesulfonyl-4,5,6,7-tetrahydro-1H-pyrazolo[4,3-c]pyridin-3-yl}-2-trifluoromethyl-benzylamide], the negative-log IC50 (pIC50) is 7.52.

As to `CC(C)CC(=O)NCc1cc(-c2nn(CC(O)CN3CCC(NS(C)(=O)=O)CC3)c3c2CN(S(C)(=O)=O)CC3)ccc1C(F)(F)F` (centres unmarked) [Example 255, N-(5-{1-[2-Hydroxy-3-(4-methanesulfonylamino-piperidin-1-yl)-propyl]-5-methanesulfonyl-4,5,6,7-tetrahydro-1H-pyrazolo[4,3-c]pyridin-3-yl}-2-trifluoromethyl-benzyl)-3-methyl-butyramide], the pIC50 is 6.80. The same measure, in the same setting: next, `CS(=O)(=O)N1CCc2c(c(-c3ccc(Cl)c(CC(=O)Nc4ccc(F)cc4)c3)nn2CCCN2CCOCC2)C1` [Example 290, 2-{2-Chloro-5-[5-methanesulfonyl-1-(3-morpholin-4-yl-propyl)-4,5,6,7-tetrahydro-1H-pyrazolo[4,3-c]pyridin-3-yl]-phenyl}-N-(4-fluoro-phenyl)-acetamide]: 5.73; `CS(=O)(=O)N1CCc2c(c(-c3ccc(Cl)c(COC(=O)c4ccc(F)cc4)c3)nn2CCCN2CCCC2)C1` [Example 3, 4-Fluoro-benzoic acid 2-chloro-5-[5-methanesulfonyl-1-(3-pyrrolidin-1-yl-propyl)-4,5,6,7-tetrahydro-1H-pyrazolo[4,3-c]pyridin-3-yl]-benzyl ester]: 5.88. The same measure, in the same setting: to `CS(=O)(=O)N1CCc2c(c(-c3ccc(Cl)c(CNC(=O)c4ccccc4)c3)nn2CC(O)CN2CCOCC2)C1` (centres unmarked) [Example 220, N-{2-Chloro-5-[1-(2-hydroxy-3-morpholin-4-yl-propyl)-5-methanesulfonyl-4,5,6,7-tetrahydro-1H-pyrazolo[4,3-c]pyridin-3-yl]-benzyl}-benzamide] belongs 6.19; to `CC(C)=CC(=O)NCc1cc(-c2nn(CC(O)CN3CCC(N(C)C)C3)c3c2CN(S(C)(=O)=O)CC3)ccc1C(F)(F)F` (centres unmarked) [Example 33, 3-Methyl-but-2-enoic acid 5-{1-[3-(3-dimethylamino-pyrrolidin-1-yl)-2-hydroxy-propyl]-5-methanesulfonyl-4,5,6,7-tetrahydro-1H-pyrazolo[4,3-c]pyridin-3-yl}-2-trifluoromethyl-benzylamide], 6.34; to `CS(=O)(=O)N1CCc2c(c(-c3ccc(Cl)c(CNC(=O)c4cccnc4)c3)nn2CCCN2CCCC2)C1` [Example 232, N-{2-Chloro-5-[5-methanesulfonyl-1-(3-pyrrolidin-1-yl-propyl)-4,5,6,7-tetrahydro-1H-pyrazolo[4,3-c]pyridin-3-yl]-benzyl}-nicotinamide], 6.09. Consider `CS(=O)(=O)N1CCc2c(c(-c3ccc(C(F)(F)F)c(CNS(=O)(=O)c4ccccc4)c3)nn2CC(O)CN2CCCC2)C1` (centres unmarked) [Example 66, N-{5-[1-(2-Hydroxy-3-pyrrolidin-1-yl-propyl)-5-methanesulfonyl-4,5,6,7-tetrahydro-1H-pyrazolo[4,3-c]pyridin-3-yl]-2-trifluoromethyl-benzyl}-benzenesulfonamide], for which the pIC50 is 5.54. Still for that read-out and setting: next, `CS(=O)(=O)N1CCc2c(c(-c3ccc(Cl)c(CNC(=O)c4ccc(F)cc4)c3)nn2CC(O)CN2CCC(C(N)=O)CC2)C1` (centres unmarked) [Example 12, 1-[3-(3-{4-Chloro-3-[(4-fluoro-benzoylamino)-methyl]-phenyl}-5-methanesulfonyl-4,5,6,7-tetrahydro-pyrazolo[4,3-c]pyridin-1-yl)-2-hydroxy-propyl]-piperidine-4-carboxylic acid amide]: 7.15; `CS(=O)(=O)N1CCc2c(c(-c3ccc(Cl)c(CC(=O)Nc4ccccc4)c3)nn2CCCN2CCOCC2)C1` [Example 291, 2-{2-Chloro-5-[5-methanesulfonyl-1-(3-morpholin-4-yl-propyl)-4,5,6,7-tetrahydro-1H-pyrazolo[4,3-c]pyridin-3-yl]-phenyl}-N-phenyl-acetamide]: 5.55; `CS(=O)(=O)N1CCc2c(c(-c3ccc(Cl)c(COCc4ccc(F)cc4)c3)nn2CCCN2CCCC2)C1` [Example 4, 3-[4-Chloro-3-(4-fluoro-benzyloxymethyl)-phenyl]-5-methanesulfonyl-1-(3-pyrrolidin-1-yl-propyl)-4,5,6,7-tetrahydro-1H-pyrazolo[4,3-c]pyridine]: 5.84. Take `CS(=O)(=O)N1CCc2c(c(-c3ccc(C(F)(F)F)c(C(=O)NCc4ccccc4)c3)nn2CC(O)CN2CCCC2)C1` (centres unmarked) [Example 193, N-Benzyl-5-[1-(2-hydroxy-3-pyrrolidin-1-yl-propyl)-5-methanesulfonyl-4,5,6,7-tetrahydro-1H-pyrazolo[4,3-c]pyridin-3-yl]-2-trifluoromethyl-benzamide]: the pIC50 was 5.25. On the same count and under the same terms, next, `CS(=O)(=O)N1CCc2c(c(-c3ccc(Cl)c(CNC(=O)c4ccc(F)cc4)c3)nn2CC(O)CN2CCC(F)(F)C2)C1` (centres unmarked) [Example 84, N-(2-Chloro-5-{1-[3-(3,3-difluoro-pyrrolidin-1-yl)-2-hydroxy-propyl]-5-methanesulfonyl-4,5,6,7-tetrahydro-1H-pyrazolo[4,3-c]pyridin-3-yl}-benzyl)-4-fluoro-benzamide]: 6.74; `CC(C)CC(=O)NCc1cc(-c2nn(CC(O)CN3CCC(O)C3)c3c2CN(S(C)(=O)=O)CC3)ccc1C(F)(F)F` (centres unmarked) [Example 246, N-(5-{1-[2-Hydroxy-3-(3-hydroxy-pyrrolidin-1-yl)-propyl]-5-methanesulfonyl-4,5,6,7-tetrahydro-1H-pyrazolo[4,3-c]pyridin-3-yl}-2-trifluoromethyl-benzyl)-3-methyl-butyramide]: 6.37; `CS(=O)(=O)N1CCc2c(c(-c3ccc(C(F)(F)F)c(CNC(=O)c4ccc(F)cc4)c3)nn2CC(O)CN2CCC3(CCNC3=O)CC2)C1` (centres unmarked) [Example 16, 4-Fluoro-N-(5-{1-[2-hydroxy-3-(1-oxo-2,8-diaza-spiro[4.5]dec-8-yl)-propyl]-5-methanesulfonyl-4,5,6,7-tetrahydro-1H-pyrazolo[4,3-c]pyridin-3-yl}-2-trifluoromethyl-benzyl)-benzamide]: 7.22. On the same count and under the same terms, next, `CC(=O)NC1CCN(CC(O)Cn2nc(-c3ccc(Cl)c(CNC(=O)c4ccc(F)cc4)c3)c3c2CCN(S(C)(=O)=O)C3)CC1` (centres unmarked) [Example 13, N-(5-{1-[3-(4-Acetylamino-piperidin-1-yl)-2-hydroxy-propyl]-5-methanesulfonyl-4,5,6,7-tetrahydro-1H-pyrazolo[4,3-c]pyridin-3-yl}-2-chloro-benzyl)-4-fluoro-benzamide]: 7.40; `CS(=O)(=O)N1CCc2c(c(-c3ccc(C(F)(F)F)c(CNC(=O)c4ccc(F)cc4)c3)nn2CC(O)CN2CCC[C@H]2C(N)=O)C1` (stereo partly drawn) [Example 97, (S)-1-[3-(3-{3-[(4-Fluoro-benzoylamino)-methyl]-4-trifluoromethyl-phenyl}-5-methanesulfonyl-4,5,6,7-tetrahydro-pyrazolo[4,3-c]pyridin-1-yl)-2-hydroxy-propyl]-pyrrolidine-2-carboxylic acid amide]: 6.62; `CS(=O)(=O)N1CCc2c(c(-c3ccc(C(F)(F)F)c(CNC(=O)CN4CCOCC4)c3)nn2CCCN2CCC(N3CCCC3=O)CC2)C1` [Example 39, N-[5-(5-Methanesulfonyl-1-{3-[4-(2-oxo-pyrrolidin-1-yl)-piperidin-1-yl]-propyl}-4,5,6,7-tetrahydro-1H-pyrazolo[4,3-c]pyridin-3-yl)-2-trifluoromethyl-benzyl]-2-morpholin-4-yl-acetamide]: 6.36. Still for that read-out and setting: to `CS(=O)(=O)N1CCc2c(c(-c3ccc(C(F)(F)F)c(CNC(=O)c4ccc(F)c(F)c4)c3)nn2CC(O)CN2CCCC2)C1` (centres unmarked) [Example 60, 3,4-Difluoro-N-{5-[1-(2-hydroxy-3-pyrrolidin-1-yl-propyl)-5-methanesulfonyl-4,5,6,7-tetrahydro-1H-pyrazolo[4,3-c]pyridin-3-yl]-2-trifluoromethyl-benzyl}-benzamide] belongs 6.68; to `CNC(=O)CCc1cc(-c2nn(CCCN3CCOCC3)c3c2CN(S(C)(=O)=O)CC3)ccc1Cl` [Example 294, 3-{2-Chloro-5-[5-methanesulfonyl-1-(3-morpholin-4-yl-propyl)-4,5,6,7-tetrahydro-1H-pyrazolo[4,3-c]pyridin-3-yl]-phenyl}-N-methyl-propionamide], 4.78; to `CC(C)(C)OC(=O)NC1CCN(CC(O)Cn2nc(-c3ccc(Cl)c(CNC(=O)c4ccc(F)cc4)c3)c3c2CCN(S(C)(=O)=O)C3)CC1` (centres unmarked) [Example 78, {1-[3-(3-{4-Chloro-3-[(4-fluoro-benzoylamino)-methyl]-phenyl}-5-methanesulfonyl-4,5,6,7-tetrahydro-pyrazolo[4,3-c]pyridin-1-yl)-2-hydroxy-propyl]-piperidin-4-yl}-carbamic acid tert-butyl ester], 7.52.

These data come from US20090118274A1, “MONOCYCLIC AMINOPROPYL TETRAHYDRO-PYRAZOLO-PYRIDINE MODULATORS OF CATHEPSIN S” (priority 2007, published 2009).
